Measured values as given in ChEMBL document CHEMBL1201862, “PubChem BioAssay data set” (2004).
The source made the active and inactive calls.

How the values were obtained:
[1] = target: 5-hydroxytryptamine receptor 2A (Mus musculus, UniProt P35363); type: functional, cell-based;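 also: CHO-K1 cells with tagged receptor and beta-arrestin; agonist potency measured as compound-induced activation of the receptor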
Mu-type opioid receptor = Mu-type opioid receptor (Homo sapiens, UniProt P35372); type: functional, cell-based;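 also: U2OS cells with beta-arrestin recruitment to OPRM1 by beta-gal complementation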
Chain of Mu-type opioid receptor (P35372 whole entry): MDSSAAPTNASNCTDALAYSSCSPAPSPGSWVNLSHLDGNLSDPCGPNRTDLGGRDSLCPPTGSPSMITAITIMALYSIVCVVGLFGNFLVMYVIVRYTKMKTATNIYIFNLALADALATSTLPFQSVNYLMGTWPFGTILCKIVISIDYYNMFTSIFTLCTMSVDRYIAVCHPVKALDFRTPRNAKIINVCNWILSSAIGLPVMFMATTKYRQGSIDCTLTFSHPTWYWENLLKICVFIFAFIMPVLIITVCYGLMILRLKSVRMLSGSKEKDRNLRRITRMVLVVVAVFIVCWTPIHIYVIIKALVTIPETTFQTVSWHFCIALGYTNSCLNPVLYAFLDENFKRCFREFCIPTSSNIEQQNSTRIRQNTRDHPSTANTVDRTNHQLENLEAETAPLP

[2] = Counterscreen for activators of the function of SWI/SNF related, matrix associated, actin dependent regulator of chromatin, subfamily a, member 2 (SMARCA2, BRM): Luminescence-based cell-based high throughput dose response assay to identify non-selective compounds using the VP16 reporter assay.; type: functional
[3] = target: SWI/SNF-related matrix-associated actin-dependent regulator of chromatin subfamily A member 2 (Homo sapiens, UniProt P51531); experiment: Luminescence-based cell-based high throughput dose response assay to identify activators of the function of SWI/SNF related, matrix associated, actin dependent regulator of chromatin, subfamily a, member 2 (SMARCA2, BRM).; type: functional
Chain of SWI/SNF-related matrix-associated actin-dependent regulator of chromatin subfamily A member 2 (P51531 whole entry): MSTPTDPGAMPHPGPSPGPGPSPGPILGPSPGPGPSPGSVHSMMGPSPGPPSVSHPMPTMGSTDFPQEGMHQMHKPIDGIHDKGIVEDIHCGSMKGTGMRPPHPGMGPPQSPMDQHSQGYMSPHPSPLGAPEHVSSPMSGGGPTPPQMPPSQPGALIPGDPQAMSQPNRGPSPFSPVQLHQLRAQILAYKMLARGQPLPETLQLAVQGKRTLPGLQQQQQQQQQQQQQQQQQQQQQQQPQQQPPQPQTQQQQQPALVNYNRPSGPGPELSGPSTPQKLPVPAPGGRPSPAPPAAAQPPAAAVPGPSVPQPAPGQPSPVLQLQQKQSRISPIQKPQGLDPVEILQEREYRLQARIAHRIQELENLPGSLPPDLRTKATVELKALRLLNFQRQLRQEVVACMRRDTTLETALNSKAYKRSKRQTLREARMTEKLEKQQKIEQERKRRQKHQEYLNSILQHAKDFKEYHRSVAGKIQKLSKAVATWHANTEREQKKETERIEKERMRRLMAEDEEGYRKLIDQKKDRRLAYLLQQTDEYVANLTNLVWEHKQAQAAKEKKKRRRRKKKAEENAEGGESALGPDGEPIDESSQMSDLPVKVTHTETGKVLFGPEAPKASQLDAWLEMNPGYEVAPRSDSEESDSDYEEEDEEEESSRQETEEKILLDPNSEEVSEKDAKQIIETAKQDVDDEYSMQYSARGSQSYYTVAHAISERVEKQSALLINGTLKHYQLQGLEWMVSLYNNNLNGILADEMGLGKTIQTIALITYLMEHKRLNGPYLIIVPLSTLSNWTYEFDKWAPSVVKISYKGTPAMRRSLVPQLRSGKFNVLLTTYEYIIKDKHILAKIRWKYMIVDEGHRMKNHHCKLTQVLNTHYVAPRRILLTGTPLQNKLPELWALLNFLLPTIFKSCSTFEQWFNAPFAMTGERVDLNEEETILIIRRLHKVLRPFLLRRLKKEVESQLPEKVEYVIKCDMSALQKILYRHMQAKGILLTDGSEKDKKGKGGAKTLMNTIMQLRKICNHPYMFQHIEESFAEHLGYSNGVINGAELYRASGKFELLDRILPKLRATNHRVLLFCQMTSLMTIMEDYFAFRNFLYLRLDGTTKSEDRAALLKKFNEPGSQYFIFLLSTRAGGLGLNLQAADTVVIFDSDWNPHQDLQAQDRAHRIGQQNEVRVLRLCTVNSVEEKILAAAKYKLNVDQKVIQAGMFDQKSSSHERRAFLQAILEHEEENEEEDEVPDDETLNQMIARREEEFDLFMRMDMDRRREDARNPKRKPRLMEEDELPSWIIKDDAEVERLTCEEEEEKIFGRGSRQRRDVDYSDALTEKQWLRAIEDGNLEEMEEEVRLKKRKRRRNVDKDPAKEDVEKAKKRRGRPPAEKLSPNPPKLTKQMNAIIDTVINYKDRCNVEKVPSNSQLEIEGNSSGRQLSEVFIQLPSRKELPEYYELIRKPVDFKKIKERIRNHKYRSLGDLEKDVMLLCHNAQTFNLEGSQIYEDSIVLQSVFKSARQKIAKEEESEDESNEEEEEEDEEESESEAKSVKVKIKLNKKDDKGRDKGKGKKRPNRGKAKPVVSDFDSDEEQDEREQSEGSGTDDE

[4] = target: 72 kDa type IV collagenase (Homo sapiens, UniProt P08253); experiment: Dose Response validation of uHTS RPN11 inhibitor hits using a MMP-2 Fluorescence assay.; type: functional
Chain of 72 kDa type IV collagenase (P08253 whole entry): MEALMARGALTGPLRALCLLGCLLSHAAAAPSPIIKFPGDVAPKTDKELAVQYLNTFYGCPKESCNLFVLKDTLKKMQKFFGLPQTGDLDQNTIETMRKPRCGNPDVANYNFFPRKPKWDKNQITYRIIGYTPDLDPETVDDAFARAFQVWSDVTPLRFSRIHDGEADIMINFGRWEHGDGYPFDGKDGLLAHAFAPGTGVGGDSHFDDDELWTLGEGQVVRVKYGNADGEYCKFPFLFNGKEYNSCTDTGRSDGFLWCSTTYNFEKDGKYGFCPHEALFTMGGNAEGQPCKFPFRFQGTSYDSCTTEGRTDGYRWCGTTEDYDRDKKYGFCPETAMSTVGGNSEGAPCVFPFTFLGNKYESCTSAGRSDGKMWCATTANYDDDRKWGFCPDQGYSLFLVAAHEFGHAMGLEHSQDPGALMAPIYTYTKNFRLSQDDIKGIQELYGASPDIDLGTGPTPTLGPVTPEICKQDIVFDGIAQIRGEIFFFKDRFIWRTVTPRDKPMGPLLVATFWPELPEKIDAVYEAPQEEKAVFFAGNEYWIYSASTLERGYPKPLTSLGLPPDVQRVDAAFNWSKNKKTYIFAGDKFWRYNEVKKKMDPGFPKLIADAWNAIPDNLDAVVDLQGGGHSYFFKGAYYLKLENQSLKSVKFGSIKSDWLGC

Prothrombin = Prothrombin (Bos taurus, UniProt P00735); experiment: thrombin inhibition, dose response, biochemical, fluorescence polarization, uHTS hits (AID 602369); type: functional
[5] = target: T1, Tyrosine-protein phosphatase non-receptor type 22 (Homo sapiens, UniProt Q9Y2R2); experiment: PTPN22 phosphatase inhibition, dose response, selectivity assay for STEP inhibitor project, biochemical (AID 624241); type: functional
T1 sequence (Q9Y2R2 whole entry): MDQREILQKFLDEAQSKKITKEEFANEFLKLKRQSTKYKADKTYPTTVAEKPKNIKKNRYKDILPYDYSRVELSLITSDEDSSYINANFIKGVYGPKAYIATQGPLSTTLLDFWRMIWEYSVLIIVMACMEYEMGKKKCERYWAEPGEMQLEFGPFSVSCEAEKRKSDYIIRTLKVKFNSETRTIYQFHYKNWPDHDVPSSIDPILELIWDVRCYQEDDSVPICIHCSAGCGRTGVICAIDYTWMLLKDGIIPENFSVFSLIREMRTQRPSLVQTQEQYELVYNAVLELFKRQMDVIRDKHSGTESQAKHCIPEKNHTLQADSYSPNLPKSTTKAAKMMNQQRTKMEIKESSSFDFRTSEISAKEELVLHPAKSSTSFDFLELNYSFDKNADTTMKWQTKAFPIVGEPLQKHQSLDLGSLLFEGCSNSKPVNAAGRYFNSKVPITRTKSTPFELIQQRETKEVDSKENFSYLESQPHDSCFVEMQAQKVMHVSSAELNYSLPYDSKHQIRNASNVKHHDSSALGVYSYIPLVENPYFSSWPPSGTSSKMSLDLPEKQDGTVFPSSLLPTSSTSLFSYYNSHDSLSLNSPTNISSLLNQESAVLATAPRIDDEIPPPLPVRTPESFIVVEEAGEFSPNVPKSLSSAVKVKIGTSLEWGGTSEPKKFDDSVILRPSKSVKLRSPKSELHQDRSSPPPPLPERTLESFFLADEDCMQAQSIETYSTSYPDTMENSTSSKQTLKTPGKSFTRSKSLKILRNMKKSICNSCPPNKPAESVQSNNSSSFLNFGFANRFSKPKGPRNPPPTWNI

[6] = target: Dual specificity protein phosphatase 3 (Homo sapiens, UniProt P51452); experiment: VHR phosphatase inhibition, dose response, selectivity assay for STEP inhibitor project, biochemical (AID 602374); type: functional; conditions: read-out: IC50_Mean
Chain of Dual specificity protein phosphatase 3 (P51452 whole entry): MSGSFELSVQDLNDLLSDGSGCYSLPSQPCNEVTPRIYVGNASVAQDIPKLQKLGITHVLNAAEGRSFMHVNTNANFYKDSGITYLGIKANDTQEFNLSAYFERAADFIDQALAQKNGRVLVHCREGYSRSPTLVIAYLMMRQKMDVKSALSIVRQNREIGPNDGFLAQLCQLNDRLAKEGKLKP

[7] = target: Tyrosine-protein phosphatase non-receptor type 11 (Homo sapiens, UniProt Q06124); experiment: SHP2 phosphatase inhibition, dose response, selectivity assay for STEP inhibitor project, biochemical (AID 602367); type: functional; conditions: read-out: IC50_Mean
Chain of Tyrosine-protein phosphatase non-receptor type 11 (Q06124 whole entry): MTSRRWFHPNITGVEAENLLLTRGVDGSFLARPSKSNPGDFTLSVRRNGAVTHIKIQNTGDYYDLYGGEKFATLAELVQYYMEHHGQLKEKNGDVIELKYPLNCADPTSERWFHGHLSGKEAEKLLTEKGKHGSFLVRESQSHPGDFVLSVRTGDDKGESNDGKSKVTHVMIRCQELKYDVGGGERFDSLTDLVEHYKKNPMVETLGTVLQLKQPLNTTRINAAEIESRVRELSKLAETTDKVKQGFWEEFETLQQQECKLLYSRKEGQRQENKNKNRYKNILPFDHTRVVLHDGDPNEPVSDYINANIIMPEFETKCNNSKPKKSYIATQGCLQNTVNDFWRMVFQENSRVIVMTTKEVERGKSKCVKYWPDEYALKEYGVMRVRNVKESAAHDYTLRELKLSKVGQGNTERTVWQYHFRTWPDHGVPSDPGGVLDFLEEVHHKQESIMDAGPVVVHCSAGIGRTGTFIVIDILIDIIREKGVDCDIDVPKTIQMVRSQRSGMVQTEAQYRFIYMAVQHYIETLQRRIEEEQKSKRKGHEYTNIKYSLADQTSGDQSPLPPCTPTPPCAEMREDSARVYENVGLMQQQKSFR

[8] = target: Tyrosine-protein phosphatase non-receptor type 5 (Homo sapiens, UniProt P54829); experiment: STEP phosphatase inhibitors, confirmation, biochemical, fluorescence intensity, uHTS hits (AID 602372); type: functional; conditions: read-out: IC50_Mean
Chain of Tyrosine-protein phosphatase non-receptor type 5 (P54829 whole entry): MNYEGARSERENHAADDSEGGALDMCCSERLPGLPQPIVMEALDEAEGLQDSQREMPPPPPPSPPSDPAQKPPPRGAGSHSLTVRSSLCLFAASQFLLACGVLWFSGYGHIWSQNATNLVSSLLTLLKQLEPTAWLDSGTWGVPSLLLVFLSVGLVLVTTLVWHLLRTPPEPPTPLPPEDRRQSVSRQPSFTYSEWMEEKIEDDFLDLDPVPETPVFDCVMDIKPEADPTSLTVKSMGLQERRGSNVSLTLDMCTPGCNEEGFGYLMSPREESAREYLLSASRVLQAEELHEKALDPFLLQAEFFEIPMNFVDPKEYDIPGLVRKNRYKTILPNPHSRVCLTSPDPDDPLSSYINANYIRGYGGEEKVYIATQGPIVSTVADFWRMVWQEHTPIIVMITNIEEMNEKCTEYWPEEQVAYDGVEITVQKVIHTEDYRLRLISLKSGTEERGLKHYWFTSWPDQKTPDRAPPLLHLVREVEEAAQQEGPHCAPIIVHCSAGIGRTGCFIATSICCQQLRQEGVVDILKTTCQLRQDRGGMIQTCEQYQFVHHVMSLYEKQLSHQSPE

[9] = target: 26S proteasome non-ATPase regulatory subunit 14 (Homo sapiens, UniProt O00487); experiment: inhibition of proteasome subunit RPN11 – biochemical, fluorescence polarization, uHTS hits, confirmation (AID 602368); type: functional
Chain of 26S proteasome non-ATPase regulatory subunit 14 (O00487 whole entry, the tested form may be a part): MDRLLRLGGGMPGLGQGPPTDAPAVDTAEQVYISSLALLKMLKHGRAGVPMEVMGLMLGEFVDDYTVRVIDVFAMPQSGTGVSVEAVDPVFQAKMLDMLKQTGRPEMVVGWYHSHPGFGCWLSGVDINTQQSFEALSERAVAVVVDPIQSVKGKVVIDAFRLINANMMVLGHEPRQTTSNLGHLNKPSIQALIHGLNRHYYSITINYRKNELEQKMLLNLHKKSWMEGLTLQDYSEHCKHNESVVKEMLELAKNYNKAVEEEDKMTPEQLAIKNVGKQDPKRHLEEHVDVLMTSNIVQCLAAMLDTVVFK

[10] = target: T2, Carboxy-terminal domain RNA polymerase II polypeptide A small phosphatase 1 (Homo sapiens, UniProt Q9GZU7); experiment: inhibitors of CTDSP1, concentration-response testing, biochemical assay, absorbance-based, actives from ultra-high-throughput screening (AID 540297); type: functional
T2 sequence (Q9GZU7 whole entry): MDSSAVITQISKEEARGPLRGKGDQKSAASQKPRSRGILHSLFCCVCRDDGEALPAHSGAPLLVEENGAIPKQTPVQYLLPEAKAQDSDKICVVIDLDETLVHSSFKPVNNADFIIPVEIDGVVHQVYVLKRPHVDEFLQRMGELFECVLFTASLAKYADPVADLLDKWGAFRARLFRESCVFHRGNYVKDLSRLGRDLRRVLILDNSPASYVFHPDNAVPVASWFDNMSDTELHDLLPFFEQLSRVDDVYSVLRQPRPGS

[11] = target: T3, Apoptotic protease-activating factor 1 (Homo sapiens, UniProt O14727); experiment: SAR analysis of small molecule Activators of Apaf-1 in a Fluorescent assay.; type: functional; conditions: read-out: EC50_Mean;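 also: caspase-3 cleavage of fluorogenic Rh110 DEVD substrate downstream of apoptosome activation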
T3 sequence (O14727 whole entry): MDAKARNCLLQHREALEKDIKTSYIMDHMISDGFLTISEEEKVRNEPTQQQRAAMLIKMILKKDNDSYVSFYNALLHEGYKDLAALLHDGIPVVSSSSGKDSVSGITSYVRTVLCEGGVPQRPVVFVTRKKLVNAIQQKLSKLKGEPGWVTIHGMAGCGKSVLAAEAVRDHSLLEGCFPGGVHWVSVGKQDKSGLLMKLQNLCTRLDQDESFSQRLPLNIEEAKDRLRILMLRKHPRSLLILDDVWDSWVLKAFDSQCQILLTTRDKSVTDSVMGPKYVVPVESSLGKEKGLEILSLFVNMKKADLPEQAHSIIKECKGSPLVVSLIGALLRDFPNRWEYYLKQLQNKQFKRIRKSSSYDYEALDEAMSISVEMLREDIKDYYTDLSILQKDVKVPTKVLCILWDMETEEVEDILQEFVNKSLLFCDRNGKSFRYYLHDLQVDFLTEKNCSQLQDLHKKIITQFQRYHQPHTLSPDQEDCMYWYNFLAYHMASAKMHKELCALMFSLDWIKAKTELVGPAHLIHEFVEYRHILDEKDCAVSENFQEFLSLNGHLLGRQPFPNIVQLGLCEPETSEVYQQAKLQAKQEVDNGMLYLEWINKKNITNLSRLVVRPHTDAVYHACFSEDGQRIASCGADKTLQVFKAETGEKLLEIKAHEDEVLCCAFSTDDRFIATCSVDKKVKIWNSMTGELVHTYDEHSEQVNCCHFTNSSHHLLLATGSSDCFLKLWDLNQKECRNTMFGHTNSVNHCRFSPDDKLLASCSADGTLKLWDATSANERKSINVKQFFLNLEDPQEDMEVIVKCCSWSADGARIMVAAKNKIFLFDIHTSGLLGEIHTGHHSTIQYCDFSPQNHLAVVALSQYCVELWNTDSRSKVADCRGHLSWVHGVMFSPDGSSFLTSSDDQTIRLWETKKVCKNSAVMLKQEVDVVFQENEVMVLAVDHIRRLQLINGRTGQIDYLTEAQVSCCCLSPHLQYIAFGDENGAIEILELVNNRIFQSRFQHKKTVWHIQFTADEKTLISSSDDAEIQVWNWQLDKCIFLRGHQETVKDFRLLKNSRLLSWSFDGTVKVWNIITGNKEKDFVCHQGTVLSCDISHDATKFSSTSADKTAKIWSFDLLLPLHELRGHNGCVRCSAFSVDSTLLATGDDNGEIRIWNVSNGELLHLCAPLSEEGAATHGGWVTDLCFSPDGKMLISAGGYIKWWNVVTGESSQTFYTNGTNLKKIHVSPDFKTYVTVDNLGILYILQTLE

[12] = target: T4, Corticotropin-releasing factor receptor 2/Corticotropin-releasing factor-binding protein (Homo sapiens, UniProt P24387+Q13324); experiment: Dose Response confirmation of uHTS hits for small molecule antagonists of the CRF-binding protein and CRF-R2 receptor complex.; type: functional; conditions: read-out: IC50_Mean
T4 sequence (Q13324 whole entry): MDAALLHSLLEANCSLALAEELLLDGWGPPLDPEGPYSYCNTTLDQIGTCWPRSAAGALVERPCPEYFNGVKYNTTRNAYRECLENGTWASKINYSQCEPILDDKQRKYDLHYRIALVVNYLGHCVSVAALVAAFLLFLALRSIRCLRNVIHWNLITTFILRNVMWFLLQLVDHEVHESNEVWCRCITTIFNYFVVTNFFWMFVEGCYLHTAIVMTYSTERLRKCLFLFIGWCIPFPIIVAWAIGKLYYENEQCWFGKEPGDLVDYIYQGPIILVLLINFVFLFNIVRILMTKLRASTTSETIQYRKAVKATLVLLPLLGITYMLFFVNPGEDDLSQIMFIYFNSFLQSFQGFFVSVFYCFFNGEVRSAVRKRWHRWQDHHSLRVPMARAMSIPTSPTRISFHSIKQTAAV
T4 sequence (P24387 whole entry): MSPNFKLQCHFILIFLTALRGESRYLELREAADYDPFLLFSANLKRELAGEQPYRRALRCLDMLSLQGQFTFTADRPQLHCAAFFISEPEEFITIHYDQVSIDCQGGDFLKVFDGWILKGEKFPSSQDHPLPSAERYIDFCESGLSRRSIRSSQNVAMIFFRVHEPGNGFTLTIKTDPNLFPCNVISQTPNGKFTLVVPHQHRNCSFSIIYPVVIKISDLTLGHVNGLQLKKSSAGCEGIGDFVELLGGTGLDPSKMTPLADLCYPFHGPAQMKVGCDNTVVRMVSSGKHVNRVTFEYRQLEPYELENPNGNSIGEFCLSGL

[13] = target: T4, Corticotropin-releasing factor receptor 2/Corticotropin-releasing factor-binding protein; experiment: activators of CRF receptor 2 with binding protein – uHTS hits, confirmation (AID 602473); type: functional; conditions: read-out: EC50_Mean
A-375 [14] = experiment: A375 melanoma cell viability reduction, dose response, counter-screen for MITF modulator project, cherry-pick samples, set 2 (AID 540335); type: functional, cell-based; conditions: Homo sapiens
A-375 [15] = experiment: MITF: Counter assay: A375 proliferation Measured in Cell-Based System Using Plate Reader - 2084-03_Inhibitor_Dose_DryPowder_Activity. [Related pubchem assays (depositor defined):AID488944]; type: functional; conditions: Homo sapiens
[16] = target: T5, Sentrin-specific protease 8 (Homo sapiens, UniProt Q96LD8); type: functional
T5 sequence (Q96LD8 whole entry): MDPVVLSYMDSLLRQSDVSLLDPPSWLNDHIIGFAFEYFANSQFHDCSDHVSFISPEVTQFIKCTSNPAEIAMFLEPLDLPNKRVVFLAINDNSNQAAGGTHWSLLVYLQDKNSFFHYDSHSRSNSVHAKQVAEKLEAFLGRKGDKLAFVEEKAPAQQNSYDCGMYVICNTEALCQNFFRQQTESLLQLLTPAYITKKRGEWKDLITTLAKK

[17] = target: T5, Sentrin-specific protease 8; type: functional; remark: listed apart in the source
[18] = off-target signal loss in HeLa-CEM21 co-culture – HeLa F-luc CTL cells, cherry-picked, counter-screen for HIV-1 Env fusion inhibitor project, dose response (AID 652040); type: functional, cell-based;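 also: potency for signal decrease marking cytotoxic or nonspecific inhibition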
[19] = ZM109 Env clade C HIV-1 fusion inhibitors, dose response, HeLa effector, CEM target cells, luciferase, cherry-pick (AID 652058); type: functional, cell-based
[20] = inhibitors of clade B AD8 Env fusion, dose response, cell-based, cherry-pick (AID 652062); type: functional;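 also: luciferase signal from cell-cell fusion driven by HIV-1 clade B AD8 Env; potency is for inhibitors of fusion seen as a drop in luminescence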
[21] = CEM21 lymphoblast cell cytotoxicity, dose response, cytotoxicity control for viral fusion inhibitor project, CellTiter-Glo luminescence, cherry-picked (AID 652042); type: functional, cell-based;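 also: potency for signal decrease meaning cytotoxicity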
[22] = inhibitors of HIV Env-driven cell fusion, dose response, cherry-pick (AID 652057); type: functional, cell-based

Chain of 5-hydroxytryptamine receptor 2A (P35363 whole entry): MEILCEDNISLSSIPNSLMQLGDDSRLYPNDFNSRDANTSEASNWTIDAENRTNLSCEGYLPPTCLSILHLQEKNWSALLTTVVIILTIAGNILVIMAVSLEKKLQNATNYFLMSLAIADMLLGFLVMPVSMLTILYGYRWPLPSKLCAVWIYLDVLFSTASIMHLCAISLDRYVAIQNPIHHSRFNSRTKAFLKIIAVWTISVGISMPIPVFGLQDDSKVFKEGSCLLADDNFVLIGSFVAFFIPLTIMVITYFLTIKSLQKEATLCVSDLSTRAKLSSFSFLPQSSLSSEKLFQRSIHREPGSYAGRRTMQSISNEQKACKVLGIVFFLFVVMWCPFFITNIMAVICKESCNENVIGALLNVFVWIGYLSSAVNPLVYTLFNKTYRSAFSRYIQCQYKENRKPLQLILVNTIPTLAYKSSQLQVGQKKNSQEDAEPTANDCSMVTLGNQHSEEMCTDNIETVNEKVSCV

## O=C(CNCc1cccs1)Nc1cc(S(=O)(=O)N2CCCC2)ccc1Cl
[1]
  EC50: 18.4 µM (inactive)
Mu-type opioid receptor
  EC50: 92.5 µM (inactive)

## Cc1cccc(CSc2ccc(-c3cccs3)nn2)c1
[2]
  EC50: > 91.1 µM (inactive)
[3]
  EC50: > 91.1 µM (inactive)

## O=C(N/N=C/c1cccnc1)c1ccc(NC(=O)c2cccc(Cl)c2)cc1
[4]
  IC50: > 100 µM (inactive)
Prothrombin
  IC50: > 100 µM (inactive)
[5]
  IC50: 30.2 µM (inactive)
[6]
  IC50: 2.84 µM (active)
[7]
  IC50: 5.05 µM (active)
[8]
  IC50: 16.5 µM (active)
[9]
  IC50: 22.7 µM (active)
[10]
  IC50: 7.91 µM (active)

## Cc1nc(C(F)(F)F)ccc1C(=O)Nc1nc2ccsc2c(=O)s1
[11]
  EC50: > 100 µM (inactive)

## CC(=O)N1CCC(N2CCCC(C(=O)c3cccc(Cl)c3)C2)CC1 (stereo unspecified)
[12]
  IC50: > 47.1 µM (inactive)
[13]
  EC50: > 53 µM (inactive)
[1]
  EC50: 0.764 µM (active)
Mu-type opioid receptor
  EC50: 92.5 µM (inactive)

## COc1ccc(OCc2ccc(/C=N\NC(=O)c3sccc3C)o2)cc1
[2]
  EC50: > 91.2 µM (inactive)
[3]
  EC50: > 91.2 µM (inactive)

## O=C(Nc1nc2ccsc2c(=O)s1)C1CCC1
A-375 [14]
  AC50: > 35 µM (active)
[11]
  EC50: > 100 µM (inactive)
A-375 [15]
  AC50: > 35 µM (active)

## COc1ccc2c(c1)C(=O)N(c1ccccc1OC)C(=O)C2
[16]
  IC50: > 100 µM (inactive)
[17]
  IC50: 15.4 µM (active)

## CCC(=O)c1ccc(OCc2cn(CC(=O)c3ccc(O)cc3)nn2)cc1
[16]
  IC50: 7.63 µM (active)
[17]
  IC50: 12.5 µM (active)

## CCOc1cccc(-c2nnc3sc(C4CCCCC4)nn23)c1
[18]
  AC50: 46 µM (active)
[19]
  AC50: 21.4 µM (active)
[20]
  AC50: 7.17 µM (active)
[21]
  AC50: 49.9 µM (active)
[22]
  AC50: 5.97 µM (active)
